Test results as given in US11339130B1 (Blade Therapeutics, Inc., priority 2016, dated 2022).

How the values were obtained:
[1] = tested on: Calpain activity in SH-SY5Y cells; assay: SH-SY5Y + AMC fluorescence assay (Suc-LLVY-AMC substrate); format: cell-based; conditions: read-out: SH-SY5Y + AMC IC50
[2] = tested on: Calpain activity in SH-SY5Y cells (SBDP-150); assay: SH-SY5Y Spectrin western blot assay (SBDP-150 breakdown product, A23187-induced); format: cell-based; conditions: Homo sapiens; SH-SY5Y cells, A23187-induced SBDP-150, western blot; read-out: SH-SY5Y Spectrin IC50
Human Calpain 1/NS1 = molecular target: T1, Human Calpain 1/NS1 (Homo sapiens, UniProt P07384); assay: Calpain inhibition continuous fluorescence (FRET) assay, Human Calpain 1/NS1; format: biochemical; conditions: read-out: Human Calpain 1/NS1 IC50
T1 sequence (P07384 1-714): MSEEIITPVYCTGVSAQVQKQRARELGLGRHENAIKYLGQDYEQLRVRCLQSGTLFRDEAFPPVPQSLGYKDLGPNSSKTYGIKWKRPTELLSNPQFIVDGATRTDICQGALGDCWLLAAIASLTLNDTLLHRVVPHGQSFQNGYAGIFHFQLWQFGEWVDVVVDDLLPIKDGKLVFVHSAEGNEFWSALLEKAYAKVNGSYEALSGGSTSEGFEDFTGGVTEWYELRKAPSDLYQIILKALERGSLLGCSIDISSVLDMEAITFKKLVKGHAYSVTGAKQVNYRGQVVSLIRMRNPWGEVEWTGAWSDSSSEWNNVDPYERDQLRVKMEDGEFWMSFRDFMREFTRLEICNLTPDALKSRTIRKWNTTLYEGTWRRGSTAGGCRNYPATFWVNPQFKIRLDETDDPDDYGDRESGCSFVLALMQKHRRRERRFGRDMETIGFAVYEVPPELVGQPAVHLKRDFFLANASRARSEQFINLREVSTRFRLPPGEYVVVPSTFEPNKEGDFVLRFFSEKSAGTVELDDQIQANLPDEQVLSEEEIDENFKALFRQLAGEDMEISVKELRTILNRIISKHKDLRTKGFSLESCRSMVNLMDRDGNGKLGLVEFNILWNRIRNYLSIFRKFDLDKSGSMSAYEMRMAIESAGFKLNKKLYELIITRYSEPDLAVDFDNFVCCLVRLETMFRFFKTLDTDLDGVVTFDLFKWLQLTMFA
T1 sequence (P04632 1-268 partner): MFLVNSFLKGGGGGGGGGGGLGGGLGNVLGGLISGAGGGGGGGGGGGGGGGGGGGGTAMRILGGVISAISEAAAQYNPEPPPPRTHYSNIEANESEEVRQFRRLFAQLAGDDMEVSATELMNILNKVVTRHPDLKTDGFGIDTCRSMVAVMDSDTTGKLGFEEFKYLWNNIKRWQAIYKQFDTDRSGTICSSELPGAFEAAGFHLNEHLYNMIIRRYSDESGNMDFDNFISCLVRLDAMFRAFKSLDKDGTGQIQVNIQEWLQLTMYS
In short: (§1)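 Continuous FRET read (ex 490/em 520 nm, 10 min) of calpain 1, 2 or 9 cleaving an internally quenched 5-FAM peptide, triggered by substrate with CaCl2 after enzyme–inhibitor incubation at ambient 25 °C, pH 7.5 Tris/NaCl/DTT buffer. IC50 from initial rates (1-5 min) via 4-parameter fit.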

Human Calpain 2/NS1 = molecular target: T2, Human Calpain 2/NS1 (Homo sapiens, UniProt P17655); assay: Calpain inhibition continuous fluorescence (FRET) assay, Human Calpain 2/NS1; format: biochemical; conditions: read-out: Human Calpain 2/NS1 IC50
T2 sequence (P17655 1-700): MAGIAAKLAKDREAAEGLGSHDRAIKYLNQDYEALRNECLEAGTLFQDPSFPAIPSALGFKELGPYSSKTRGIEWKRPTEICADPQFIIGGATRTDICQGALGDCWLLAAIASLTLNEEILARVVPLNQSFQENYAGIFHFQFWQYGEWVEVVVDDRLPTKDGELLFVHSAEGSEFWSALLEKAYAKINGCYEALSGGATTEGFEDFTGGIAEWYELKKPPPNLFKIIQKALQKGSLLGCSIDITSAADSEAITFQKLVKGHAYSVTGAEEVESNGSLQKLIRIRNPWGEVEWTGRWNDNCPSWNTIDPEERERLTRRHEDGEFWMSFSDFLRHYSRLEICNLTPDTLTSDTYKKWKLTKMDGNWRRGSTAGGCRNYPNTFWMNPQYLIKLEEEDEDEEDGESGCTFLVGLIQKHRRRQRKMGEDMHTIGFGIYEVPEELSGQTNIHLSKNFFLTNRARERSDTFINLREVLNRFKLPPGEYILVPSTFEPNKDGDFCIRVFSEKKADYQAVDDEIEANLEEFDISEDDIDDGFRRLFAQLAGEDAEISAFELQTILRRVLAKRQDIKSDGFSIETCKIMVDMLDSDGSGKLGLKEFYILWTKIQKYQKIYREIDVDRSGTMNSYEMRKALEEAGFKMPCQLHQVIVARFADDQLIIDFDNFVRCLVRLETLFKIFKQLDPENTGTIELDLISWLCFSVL
T2 sequence (P04632 1-268 partner): T1 sequence (P04632 1-268 partner)
In short: as §1

Human Calpain 9/NS1 = molecular target: T3, Human Calpain 9/NS1 (Homo sapiens, UniProt O14815); assay: Calpain inhibition continuous fluorescence (FRET) assay, Human Calpain 9/NS1; format: biochemical; conditions: read-out: Human Calpain 9/NS1 IC50
T3 sequence (O14815 1-690): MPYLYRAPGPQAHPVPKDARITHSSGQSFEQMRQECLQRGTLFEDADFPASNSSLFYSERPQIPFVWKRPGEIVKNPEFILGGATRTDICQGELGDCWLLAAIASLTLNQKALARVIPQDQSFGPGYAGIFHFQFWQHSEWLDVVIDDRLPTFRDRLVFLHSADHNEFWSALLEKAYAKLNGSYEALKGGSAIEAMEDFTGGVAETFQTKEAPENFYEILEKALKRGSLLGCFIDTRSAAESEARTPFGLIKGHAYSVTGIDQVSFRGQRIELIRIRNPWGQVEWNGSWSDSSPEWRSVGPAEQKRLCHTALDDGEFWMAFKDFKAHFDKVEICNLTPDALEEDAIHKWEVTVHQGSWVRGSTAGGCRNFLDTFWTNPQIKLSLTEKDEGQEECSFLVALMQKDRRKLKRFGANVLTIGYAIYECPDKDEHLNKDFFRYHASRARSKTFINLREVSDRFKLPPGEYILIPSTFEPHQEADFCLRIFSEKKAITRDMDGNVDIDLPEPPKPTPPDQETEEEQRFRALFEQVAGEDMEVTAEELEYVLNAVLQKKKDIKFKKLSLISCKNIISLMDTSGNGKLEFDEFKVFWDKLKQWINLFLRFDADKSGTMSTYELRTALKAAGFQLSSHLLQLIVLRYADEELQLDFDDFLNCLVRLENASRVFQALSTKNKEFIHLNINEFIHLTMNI
T3 sequence (P04632 1-268 partner): T1 sequence (P04632 1-268 partner)
In short: as §1

Row | Structure (SMILES) | IC50 [1] | IC50 [2] | IC50 (Human Calpain 1/NS1) | IC50 (Human Calpain 2/NS1) | IC50 (Human Calpain 9/NS1)
1 | Cn1cc(C(=O)N[C@@H](Cc2ccccc2)C(=O)C(N)=O)c(-c2cnccn2)n1 [Compound 313, (S)—N-(4-amino-3,4-dioxo-1-phenylbutan-2-yl)-1-methyl-3-(pyrazin-2-yl)-1H-pyrazole-4-carboxamide] | > 25 µM | > 25 µM | < 3 µM | < 3 µM | < 3 µM
2 | Cn1cc(C(=O)N[C@H](C=O)Cc2ccccc2)c(-c2ccccc2)n1 [Compound 317, (S)-1-methyl-N-(1-oxo-3-phenylpropan-2-yl)-3-phenyl-1H-pyrazole-4-carboxamide] | > 25 µM | 10 to 25 µM | < 3 µM | < 3 µM | < 3 µM
3 | Cc1cc(C(=O)NC(Cc2ccccc2)C(=O)C(N)=O)c(-n2ccc(-c3ccccc3)n2)s1 (centres unmarked) [Compound 320, N-(4-amino-3,4-dioxo-1-phenylbutan-2-yl)-5-methyl-2-(3-phenyl-1H-pyrazol-1-yl)thiophene-3-carboxamide] | > 25 µM | 10 to 25 µM | < 3 µM | < 3 µM | < 3 µM
4 | NC(=O)C(=O)C(Cc1ccccc1)NC(=O)c1nsnc1-c1cccc(F)c1 (centres unmarked) [Compound 321, N-(4-amino-3,4-dioxo-1-phenylbutan-2-yl)-4-(3-fluorophenyl)-1,2,5-thiadiazole-3-carboxamide] | > 25 µM | < 10 µM | < 3 µM | < 3 µM | < 3 µM
5 | Cc1nc(-c2ccccc2)c(C(=O)N[C@H](C=O)Cc2ccccc2)o1 [Compound 322, (S)-2-methyl-N-(1-oxo-3-phenylpropan-2-yl)-4-phenyloxazole-5-carboxamide] | > 25 µM | 10 to 25 µM | < 3 µM | < 3 µM | < 3 µM
6 | Cc1cccc(-c2nsnc2C(=O)NC(Cc2ccccc2)C(=O)C(N)=O)c1 (centres unmarked) [Compound 325, N-(4-amino-3,4-dioxo-1-phenylbutan-2-yl)-4-(M-tolyl)-1,2,5-thiadiazole-3-carboxamide] | > 25 µM | > 25 µM | < 3 µM | < 3 µM | < 3 µM
7 | Cc1ccccc1-c1nsnc1C(=O)NC(Cc1ccccc1)C(=O)C(N)=O (centres unmarked) [Compound 326, N-(4-amino-3,4-dioxo-1-phenylbutan-2-yl)-4-(o-tolyl)-1,2,5-thiadiazole-3-carboxamide] | < 10 µM | 10 to 25 µM | < 3 µM | < 3 µM | < 3 µM
8 | NC(=O)C(=O)C(Cc1ccccc1)NC(=O)c1nsnc1-c1ccccc1F (centres unmarked) [Compound 327, N-(4-amino-3,4-dioxo-1-phenylbutan-2-yl)-4-(2-fluorophenyl)-1,2,5-thiadiazole-3-carboxamide] | < 10 µM | < 10 µM | < 3 µM | < 3 µM | < 3 µM
9 | Cn1cc(C(=O)N[C@H](C=O)Cc2ccccc2)c(-c2cccc(F)c2)n1 [Compound 328, (S)-3-(3-fluorophenyl)-1-methyl-N-(1-oxo-3-phenylpropan-2-yl)-1H-pyrazole-4-carboxamide] | > 25 µM | 10 to 25 µM | < 3 µM | < 3 µM | < 3 µM
10 | Cc1cccc(-c2nn(C)cc2C(=O)N[C@H](C=O)Cc2ccccc2)c1 [Compound 329, (S)-1-methyl-N-(1-oxo-3-phenylpropan-2-yl)-3-(M-tolyl)-1H-pyrazole-4-carboxamide] | > 25 µM | > 25 µM | < 3 µM | < 3 µM | < 3 µM
11 | O=C[C@H](Cc1ccccc1)NC(=O)c1cn(C2CC2)nc1-c1ccccc1 [Compound 330, (S)-1-cyclopropyl-N-(1-oxo-3-phenylpropan-2-yl)-3-phenyl-1H-pyrazole-4-carboxamide] | 10 to 25 µM | 10 to 25 µM | < 3 µM | < 3 µM | < 3 µM
12 | Cc1cc(C)cc(C[C@H](NC(=O)c2cn(C)nc2-c2ccccc2)C(=O)C(N)=O)c1 [Compound 331] | > 25 µM | < 10 µM | < 3 µM | < 3 µM | < 3 µM
13 | CC[C@H](NC(=O)c1cn(C)nc1-c1ccccc1)C(=O)C(N)=O [Compound 332, (S)—N-(1-amino-1,2-dioxopentan-3-yl)-1-methyl-3-phenyl-1H-pyrazole-4-carboxamide] | > 25 µM | > 25 µM | < 3 µM | < 3 µM | < 3 µM
14 | CC[C@@H](C)[C@H](NC(=O)c1cn(C)nc1-c1ccccc1)C(=O)C(N)=O [Compound 333, N-((3S,4R)-1-amino-4-methyl-1,2-dioxohexan-3-yl)-1-methyl-3-phenyl-1H-pyrazole-4-carboxamide] | > 25 µM | > 25 µM | < 3 µM | < 3 µM | < 3 µM
15 | Cn1cc(C(=O)N[C@@H](Cc2ccccc2)C(=O)C(=O)NCc2ncco2)c(-c2ccccc2)n1 [Compound 334, (S)-1-methyl-N-(4-((oxazol-2-ylmethyl)amino)-3,4-dioxo-1-phenylbutan-2-yl)-3-phenyl-1H-pyrazole-4-carboxamide] | < 10 µM | > 25 µM | < 3 µM | < 3 µM | < 3 µM
16 | CN(C)C(=O)CNC(=O)C(=O)[C@H](Cc1ccccc1)NC(=O)c1cn(C)nc1-c1ccccc1 [Compound 337, (S)—N-(4-((2-(dimethylamino)-2-oxoethyl)amino)-3,4-dioxo-1-phenylbutan-2-yl)-1-methyl-3-phenyl-1H-pyrazole-4-carboxamide] | < 10 µM | < 10 µM | < 3 µM | < 3 µM | < 3 µM
